Several values for one entry are separate records, joined by “and”; a condition that tells them apart may be missing. Identical values can stand only once. Toxic doses and inconclusive results are not listed. Cut-off read from the data, not from the text of the source: active = T/C of 150% or more; inactive = T/C below 125%.
Test system: L1210 leukemia ip in BDF1 mice, survival T/C
Test: NCI In Vivo Anticancer Drug Screen. Data for tumor model L1210 Leukemia (intraperitoneal) in B6D2F1 (BDF1) mice
Details: endpoint: mean survival time, higher = longer survival
Method in brief: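 Transplanted-tumor mice were given test agent; controls received vehicle only. Survival readings from the two groups were divided (treated over control).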

Measured: T/C

CN(C)[C@@H]1C(=O)C(C(=O)NCNc2nc(=S)c3[nH]cnc3[nH]2)=C(O)[C@@]2(O)C(=O)C3=C(O)c4c(O)cccc4[C@@](C)(O)[C@H]3C[C@@H]12
inactive: dose: 75.0 mg/kg/injection, schedule: Q01DX Z (ip), vehicle: carboxymethylcellulose (CMC) 119 % of control | dose: 125.0 mg/kg/injection, schedule: Q01DX Z (ip), vehicle: carboxymethylcellulose (CMC) 121 % of control | dose: 250.0 mg/kg/injection, schedule: Q01DX Z (ip), vehicle: carboxymethylcellulose (CMC) 95 % of control

O=C(O)c1ccc(F)c(F)c1
inactive: dose: 100.0 mg/kg/injection, schedule: Q04DX002 (ip), vehicle: other 110 % of control | dose: 200.0 mg/kg/injection, schedule: Q04DX002 (ip), vehicle: other 115 % of control | dose: 400.0 mg/kg/injection, schedule: Q04DX002 (ip), vehicle: other 107 % of control

Nc1ccc([As](=O)(O)O)cc1
inactive: dose: 25.0 mg/kg/injection, schedule: Q01DX009 (ip), vehicle: saline 102 % of control | dose: 50.0 mg/kg/injection, schedule: Q01DX009 (ip), vehicle: saline 102 % of control | dose: 100.0 mg/kg/injection, schedule: Q01DX009 (ip), vehicle: saline 94 % of control and 104 % of control | dose: 100.0 mg/kg/injection, schedule: Q04DX002 (ip), vehicle: saline 91 % of control | dose: 200.0 mg/kg/injection, schedule: Q04DX002 (ip), vehicle: saline 102 % of control | dose: 400.0 mg/kg/injection, schedule: Q04DX002 (ip), vehicle: saline 87 % of control
